molecular target: human mGluR5 receptor (Homo sapiens (Human), UniProt P41594); experiment: Calcium influx assay based on fluorescence (mGluR5 PAM activity); details: human mGluR5 receptor-overexpressed HEK293 cell line; L-glutamate EC20; Fluo-4, FLIPR
How it was run: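 HEK293 cells overexpressing human mGluR5, loaded 1 h with Fluo-4 at 37° C. Compounds (10 μM to 10 nM final, 0.1–0.2% DMSO) added with an EC20 concentration of L-glutamate, and Ca2+ response read by FLIPR at room temperature. Activity scaled as 0% for EC20 glutamate alone and 100% for glutamate maximum.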

human mGluR5 receptor, sequence (P41594 21-1212): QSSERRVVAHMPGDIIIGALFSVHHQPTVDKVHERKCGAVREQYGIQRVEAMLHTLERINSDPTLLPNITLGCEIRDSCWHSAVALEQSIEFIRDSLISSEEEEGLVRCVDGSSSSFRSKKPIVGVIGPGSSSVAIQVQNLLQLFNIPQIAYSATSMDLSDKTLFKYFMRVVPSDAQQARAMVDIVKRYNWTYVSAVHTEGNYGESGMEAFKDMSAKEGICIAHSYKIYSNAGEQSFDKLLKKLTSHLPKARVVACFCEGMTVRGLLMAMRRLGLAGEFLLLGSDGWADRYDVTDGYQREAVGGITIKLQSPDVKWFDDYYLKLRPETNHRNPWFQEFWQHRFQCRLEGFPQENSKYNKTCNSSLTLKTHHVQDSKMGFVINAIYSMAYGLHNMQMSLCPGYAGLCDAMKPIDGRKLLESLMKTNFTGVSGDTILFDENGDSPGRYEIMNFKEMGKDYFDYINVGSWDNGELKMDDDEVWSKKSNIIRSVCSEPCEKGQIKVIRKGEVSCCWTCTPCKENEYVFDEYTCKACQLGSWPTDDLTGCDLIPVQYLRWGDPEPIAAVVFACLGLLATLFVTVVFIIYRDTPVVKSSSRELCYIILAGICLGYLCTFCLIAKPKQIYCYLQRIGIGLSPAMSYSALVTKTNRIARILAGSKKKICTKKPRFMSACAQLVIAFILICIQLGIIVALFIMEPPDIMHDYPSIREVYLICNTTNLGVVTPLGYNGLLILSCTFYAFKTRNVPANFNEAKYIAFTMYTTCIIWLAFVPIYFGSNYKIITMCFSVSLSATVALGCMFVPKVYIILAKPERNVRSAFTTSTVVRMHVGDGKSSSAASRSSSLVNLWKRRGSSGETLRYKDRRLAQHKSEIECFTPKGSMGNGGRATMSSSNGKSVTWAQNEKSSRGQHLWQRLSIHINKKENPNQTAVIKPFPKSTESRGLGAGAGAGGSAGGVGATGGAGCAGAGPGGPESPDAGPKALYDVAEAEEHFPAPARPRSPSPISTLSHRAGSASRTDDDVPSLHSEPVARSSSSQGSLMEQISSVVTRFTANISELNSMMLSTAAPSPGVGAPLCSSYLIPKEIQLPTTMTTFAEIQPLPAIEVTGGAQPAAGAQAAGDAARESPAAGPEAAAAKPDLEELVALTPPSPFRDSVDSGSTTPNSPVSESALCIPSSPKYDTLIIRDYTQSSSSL

SMILES	EC50
Fc1ccc(-c2cnc3nc(COc4ccnc(Cl)c4)cn3c2)cc1 [Example 172, 2-[(2-chloro-4-pyridyl)oxymethyl]-6-(4-fluorophenyl)imidazo[1,2-a]pyrimidine]	100 to 500 nM
Fc1cncc(OCc2cn3cc(-c4ccc(F)cc4C(F)(F)F)cnc3n2)c1 [Example 173, 2-[(5-fluoro-3-pyridyl)oxymethyl]-6-[4-fluoro-2-(trifluoromethyl)phenyl]imidazo[1,2-a]pyrimidine]	500 to 1000 nM
Fc1ccc(-c2cnc3nc(COc4ccncc4)cn3n2)c(F)c1 [Example 179, 2-(2,4-difluorophenyl)-6-((pyridin-4-yloxy)methyl)imidazo[1,2-b][1,2,4]triazine]	100 to 500 nM
Fc1ccc(-c2cnc3nc(COc4ccnc(F)c4)cn3n2)c(F)c1 [Example 183, 2-(2,4-difluorophenyl)-6-((2-fluoropyridin-4-yloxy)methyl)imidazo[1,2-b][1,2,4]triazine]	100 to 500 nM
Cc1ccccc1-c1cnc2nc(COc3ccnc(F)c3)cn2n1 [Example 185, 2-(2-methylphenyl)-6-((2-fluoropyridin-4-yloxy)methyl)imidazo[1,2-b][1,2,4]triazine]	100 to 500 nM
Fc1ccc(-c2cnc3nc(COc4ccccn4)cn3n2)c(C(F)(F)F)c1 [Example 186, 2-[4-fluoro-2-(trifluoromethyl)phenyl]-6-(2-pyridyloxymethyl)imidazo[1,2-b][1,2,4]triazine]	100 to 500 nM
Cc1c(F)cccc1-c1cnc2nc(COc3ccccn3)cn2n1 [Example 187, 2-(3-fluoro-2-methyl-phenyl)-6-(2-pyridyloxymethyl)imidazo[1,2-b][1,2,4]triazine]	100 to 500 nM
FC(F)(F)c1cc(Cl)ccc1-c1cnc2nc(COc3ccccn3)cn2n1 [Example 189, 2-[4-chloro-2-(trifluoromethyl)phenyl]-6-(2-pyridyloxymethyl)imidazo[1,2-b][1,2,4]triazine]	500 to 1000 nM
Cc1cc(F)ccc1-c1cnc2nc(COc3ccc(F)cn3)cn2n1 [Example 192, 2-(4-fluoro-2-methyl-phenyl)-6-[(5-fluoro-2-pyridyl)oxymethyl]imidazo[1,2-b][1,2,4]triazine]	100 to 500 nM
NC(=O)OCc1cc(F)ccc1-c1cnc2nc(COc3ccc(F)cc3)cn2c1 [Example 193, [5-fluoro-2-[2-[(4-fluorophenoxy)methyl]imidazo[1,2-a]pyrimidin-6-yl]phenyl]methyl carbamate]	100 to 500 nM
Fc1ccc(OCc2cn3cc(-c4ccc(F)cc4CCl)cnc3n2)cc1 [Example 197, 6-[2-(chloromethyl)-4-fluoro-phenyl]-2-[(4-fluorophenoxy)methyl)imidazo[1,2-a]pyrimidine]	100 to 500 nM

The remaining lines, values ahead:

EC50	SMILES
100 to 500 nM	Fc1ccc(-c2cnc3nc(COc4ccnc(F)c4)cn3c2)c(C(F)(F)F)c1 [Example 174, 2-[(2-fluoro-4-pyridyl)oxymethyl]-6-[4-fluoro-2-(trifluoromethyl)phenyl]imidazo[1,2-a]pyrimidine]
500 to 1000 nM	Nc1cc(F)ccc1-c1cnc2nc(COc3cncc(F)c3)cn2c1 [Example 175, 5-fluoro-2-[2-[(5-fluoro-3-pyridyl)oxymethyl]imidazo[1,2-a]pyrimidin-6-yl]aniline]
100 to 500 nM	Nc1cc(F)ccc1-c1cnc2nc(COc3ccnc(F)c3)cn2c1 [Example 176, 5-fluoro-2-[2-[(2-fluoro-4-pyridyl)oxymethyl]imidazo[1,2-a]pyrimidin-6-yl]aniline]
500 to 1000 nM	OCc1cc(F)ccc1-c1cnc2nc(COc3cncc(F)c3)cn2c1 [Example 177, [5-fluoro-2-[2-[(5-fluoro-3-pyridyl)oxymethyl]imidazo[1,2-a]pyrimidin-6-yl]phenyl]methanol]
100 to 500 nM	Fc1ccc(-c2cnc3nc(COc4ccccc4)cn3n2)c(F)c1 [Example 178, 2-(2,4-difluorophenyl)-6-(phenoxymethyl)imidazo[1,2-b][1,2,4]triazine]
100 to 500 nM	Fc1ccc(-c2cnc3nc(COc4ccccn4)cn3n2)c(F)c1 [Example 180, 2-(2,4-difluorophenyl)-6-((pyridin-2-yloxy)methyl)imidazo[1,2-b][1,2,4]triazine]
100 to 500 nM	Cc1cc(F)ccc1-c1cnc2nc(COc3ccnc(F)c3)cn2n1 [Example 184, 2-(4-fluoro-2-methylphenyl)-6-((2-fluoropyridin-4-yloxy)methyl)imidazo[1,2-b][1,2,4]triazine]
100 to 500 nM	Cc1cc(Cl)ccc1-c1cnc2nc(COc3ccccn3)cn2n1 [Example 190, 2-(4-chloro-2-methyl-phenyl)-6-(2-pyridyloxymethyl)imidazo[1,2-b][1,2,4]triazine]
500 to 1000 nM	Cc1cc(F)ccc1-c1cnc2nc(COc3cccc(F)n3)cn2n1 [Example 191]
100 to 500 nM	NC(=O)OCc1cc(F)ccc1-c1cnc2nc(COc3ccccc3)cn2c1 [Example 194, [5-fluoro-2-[2-(phenoxymethyl)imidazo[1,2-a]pyrimidin-6-yl]phenyl]methyl carbamate]
100 to 500 nM	NC(=O)OCc1cc(F)ccc1-c1cnc2nc(COc3ccccn3)cn2c1 [Example 195, [5-fluoro-2-[2-(2-pyridyloxymethyl)imidazo[1,2-a]pyrimidin-6-yl]phenyl]methyl carbamate]
100 to 500 nM	CC(=O)OCc1cc(F)ccc1-c1cnc2nc(COc3ccccn3)cn2c1 [Example 196, [5-fluoro-2-[2-(2-pyridyloxymethyl)imidazo[1,2-a]pyrimidin-6-yl]phenyl]methyl acetate]
100 to 500 nM	FCc1cc(F)ccc1-c1cnc2nc(COc3ccc(F)cc3)cn2c1 [Example 199, 6-[4-fluoro-2-(fluoromethyl)phenyl]-2-[(4-fluorophenoxy)methyl]imidazo[1,2-a]pyrimidine]

From US9745310B2 (SK BIOPHARMACEUTICALS CO., LTD., priority 2015, dated 2017)
